One experiment addresses T1, STAT5a Trp566Arg (Homo sapiens, UniProt P42229, W566R).
T1 construct: made in house
T1 sequence (P42229 1-794 W566R): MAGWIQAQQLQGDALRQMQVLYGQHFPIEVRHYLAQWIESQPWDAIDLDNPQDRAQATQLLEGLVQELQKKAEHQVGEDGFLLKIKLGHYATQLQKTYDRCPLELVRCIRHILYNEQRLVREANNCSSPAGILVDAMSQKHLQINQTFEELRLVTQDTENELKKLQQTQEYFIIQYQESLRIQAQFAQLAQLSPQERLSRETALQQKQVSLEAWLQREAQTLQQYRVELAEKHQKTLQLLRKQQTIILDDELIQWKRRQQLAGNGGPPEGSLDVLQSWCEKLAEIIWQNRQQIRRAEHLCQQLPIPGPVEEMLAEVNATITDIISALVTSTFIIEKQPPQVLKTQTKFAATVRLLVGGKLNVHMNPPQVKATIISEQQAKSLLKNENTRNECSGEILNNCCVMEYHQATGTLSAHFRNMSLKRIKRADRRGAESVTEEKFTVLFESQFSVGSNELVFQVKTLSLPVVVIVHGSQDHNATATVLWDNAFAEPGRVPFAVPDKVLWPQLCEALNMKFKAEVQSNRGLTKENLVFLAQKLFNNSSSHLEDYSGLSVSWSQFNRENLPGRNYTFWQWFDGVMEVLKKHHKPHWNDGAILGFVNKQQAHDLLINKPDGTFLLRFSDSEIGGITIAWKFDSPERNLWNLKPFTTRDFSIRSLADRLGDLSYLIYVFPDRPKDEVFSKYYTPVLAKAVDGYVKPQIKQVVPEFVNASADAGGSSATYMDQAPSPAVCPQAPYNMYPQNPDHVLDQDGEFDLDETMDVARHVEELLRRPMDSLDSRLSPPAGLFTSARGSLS
The experiment is described as follows: Fluorescence polarization assay, point mutant STAT5a Trp566Arg. The format is binding. Background: Polarisation of emitted light reports the rotation of a fluorescent probe.

A further experiment deals with T2, STAT5b Arg566Trp (Homo sapiens, UniProt P51692, R566W).
T2 construct: made in house
T2 sequence (P51692 1-787 R566W): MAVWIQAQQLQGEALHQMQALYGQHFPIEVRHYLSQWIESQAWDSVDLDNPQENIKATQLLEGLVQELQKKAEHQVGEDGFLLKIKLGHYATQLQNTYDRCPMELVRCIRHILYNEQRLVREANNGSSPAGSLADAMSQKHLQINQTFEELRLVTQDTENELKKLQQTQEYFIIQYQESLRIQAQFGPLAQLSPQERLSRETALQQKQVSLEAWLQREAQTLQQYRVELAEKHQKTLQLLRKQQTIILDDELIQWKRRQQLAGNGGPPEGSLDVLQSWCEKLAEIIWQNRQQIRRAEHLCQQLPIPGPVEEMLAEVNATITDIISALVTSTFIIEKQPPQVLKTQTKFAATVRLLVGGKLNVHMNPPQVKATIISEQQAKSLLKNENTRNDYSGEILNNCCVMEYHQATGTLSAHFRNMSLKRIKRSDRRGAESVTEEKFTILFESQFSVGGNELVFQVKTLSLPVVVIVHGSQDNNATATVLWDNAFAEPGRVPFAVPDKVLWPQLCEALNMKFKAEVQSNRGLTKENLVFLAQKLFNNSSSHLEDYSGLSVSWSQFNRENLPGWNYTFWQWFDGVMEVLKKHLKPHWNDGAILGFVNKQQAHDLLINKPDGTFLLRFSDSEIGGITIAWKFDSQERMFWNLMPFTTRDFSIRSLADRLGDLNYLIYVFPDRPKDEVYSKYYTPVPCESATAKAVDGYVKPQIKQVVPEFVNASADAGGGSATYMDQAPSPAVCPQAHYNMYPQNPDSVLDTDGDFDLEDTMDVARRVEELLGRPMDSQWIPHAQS
Put plainly: Fluorescence polarization assay, point mutant STAT5b Arg566Trp. It counts as binding. Particulars: FP assay.

Experiment [1] deals with T3, STAT5b Arg566Trp/Met639Asn/Met644Lys (STAT5b‐3M) (Homo sapiens, UniProt P51692, M639N/M644K/R566W).
T3 construct: made in house
T3 sequence (P51692 1-787 R566W/M639N/M644K): T2 sequence (P51692 1-787 R566W) with M639N, M644K
Put plainly: Fluorescence polarization assay, triple mutant STAT5b-3M. The format is binding.

The target in a further experiment is STAT3 (Homo sapiens, UniProt P40763). The experiment is described as follows: Fluorescence polarization competitive binding assay, STAT3 SH2 domain. Particulars: read-out: STAT3 inhibition at 200 μM.
Where [2] appears, read: FP assay, double-purified protein.

As a reminder, the IC50 is the midpoint of a concentration-inhibition curve. Lower therefore signals higher potency. The term Ki denotes the equilibrium dissociation constant of an inhibitor or competing ligand from its target. The term inhibition denotes the share of the control response that was lost under treatment.

Substitutions are numbered along the chain they refer to.

Chain of STAT3 (P40763 whole entry, species assumed, the tested form may be a part): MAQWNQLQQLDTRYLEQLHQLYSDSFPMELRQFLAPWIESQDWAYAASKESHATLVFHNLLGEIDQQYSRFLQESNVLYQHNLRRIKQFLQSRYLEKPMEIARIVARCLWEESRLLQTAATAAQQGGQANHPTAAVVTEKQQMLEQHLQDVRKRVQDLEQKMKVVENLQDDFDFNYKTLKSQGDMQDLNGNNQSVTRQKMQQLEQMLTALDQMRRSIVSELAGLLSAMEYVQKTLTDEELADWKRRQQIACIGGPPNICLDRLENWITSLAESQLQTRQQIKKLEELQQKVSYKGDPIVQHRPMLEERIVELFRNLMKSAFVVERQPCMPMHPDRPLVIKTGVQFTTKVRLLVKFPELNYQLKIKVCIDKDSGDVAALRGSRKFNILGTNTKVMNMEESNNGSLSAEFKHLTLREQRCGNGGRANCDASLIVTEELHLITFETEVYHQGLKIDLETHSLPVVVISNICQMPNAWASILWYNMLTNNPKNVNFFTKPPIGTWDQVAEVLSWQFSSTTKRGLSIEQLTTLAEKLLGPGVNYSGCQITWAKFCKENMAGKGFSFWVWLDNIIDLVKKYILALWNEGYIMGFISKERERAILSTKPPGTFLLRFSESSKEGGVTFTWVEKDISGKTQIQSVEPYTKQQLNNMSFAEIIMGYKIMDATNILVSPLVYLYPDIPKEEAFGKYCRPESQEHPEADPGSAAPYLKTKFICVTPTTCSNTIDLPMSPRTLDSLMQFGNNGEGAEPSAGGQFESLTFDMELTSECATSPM
Description for STAT3: Expression and purification of STAT1, STAT3, STAT4, STAT5a, STAT5b, STAT5a Trp566Arg, STAT5b Arg566Trp, STAT5b 6M, STAT5b 7M, STAT6, and Lck have previously been described.[4, 12] STAT proteins were purified over a single His-Bind resin (Millipore) column.
Wild-type and mutant STAT5a/b proteins used for activity analysis of 20 were purified over two successive His-Bind resin columns.[4, 13]
Fluorescence Polarization assays
Competitive binding assays based on fluorescence polarization were essentially carried out as described.[14] Unless stated otherwise, the following final concentration of proteins were used:
STAT4; 105 nM for STAT6; 30 nM for Lck. Final concentration of all peptides: 10 nM. Peptides used: 5-carboxyfluorescein-GpYLVLDKW for STAT5a/b and point mutants thereof; 5-carboxyfluorescein-GpYLPQTV-NH2 for STAT3; 5-carboxyfluorescein-GpYDKPHVL for STAT1; 5-carboxyfluorescein-GpYLPQNID-OH for STAT4; 5-carboxyfluorescein-
analysis of 20 against wild-type (wt) STAT5a/b and STAT5a/b point mutants, the following concentrations of double-purified protein were used, which reflect the approximate Kd values of the interactions with 5-carboxyfluorescein-GpYLVLDKW: STAT5a wt: 147 nM; STAT5b wt:
STAT5b 6M: 80 nM; STAT5b 7M: 282 nM. Assay buffer: 10 mM Tris (pH 8.0), 50 mM NaCl, 1 mM EDTA, 1 mM DTT, 0.1 % Nonidet P-40 substitute, and 2 % DMSO in water. A major part of the pipetting was done using a Biomek FXp sceening robot (Beckman-Coulter). Protein and test compounds were incubated for 1 h, followed by addition of the fluorescein-labeled peptide.
Fluorescence polarization was measured after another hour using an Infinite F500 plate reader (Tecan). IC50 values were converted to Ki-values using the published equation.[15]

In the case of `COc1cc(-c2cc(OP(=O)(O)O)cc(-c3cc(OC)c(OC)c(OC)c3)c2)cc(OC)c1OC` [Compound 20], the IC50 on STAT5a Trp566Arg (setting [2]) is 155 ± 15 µM; in experiment [1] (FP assay), 101 ± 11 µM. In addition, the Ki came out at 74 ± 7 µM at STAT5a Trp566Arg (setting [2]) and 49 ± 5.4 µM in experiment [1] (FP assay). In addition, the “reduction of activity against STAT5a Trp566Arg as compared to wild-type STAT5a” value on STAT5a Trp566Arg (FP assays) is 7 fold. Moreover, the values for the inhibition at 200 µM at STAT5b Arg566Trp and at STAT3 were 43 ± 7% and 27 ± 2%, respectively. Also, the “activity gap between STAT5b-3M and STAT5b-7M” value in experiment [1] (FP assays) was found to be 2.5 fold.

The record behind these values is PMC6973011, “Stafia‐1: a STAT5a‐Selective Inhibitor Developed via Docking‐Based Screening of in Silico O‐Phosphorylated Fragments” (Chemistry (Weinheim an Der Bergstrasse, Germany), 2019).
